Experimental data from patent publication US20240246964A1 (Arbutus Biopharma Corporation, priority 2021, published 2024).

What was measured:
[1] = target: PD-L1 His protein / PD-1 Fc protein (Homo sapiens (Human), UniProt Q9NZQ7); test: HTRF Assay (PD-1/PD-L1 interaction); assay type: binding; settings: PD-L1 His 6 nM, PD-1 Fc 6 nM
human PD-L1 = human PD-L1 (Homo sapiens (Human), UniProt Q9NZQ7); test: T cell activation luciferase reporter cell culture system (T Cell Activation Assay); assay type: cell-based; settings: luciferase reporter assay; PD-L1 aAPC/CHO-K1 cells with PD-1 effector Jurkat T cells
Sequence of human PD-L1 (Q9NZQ7 19-290): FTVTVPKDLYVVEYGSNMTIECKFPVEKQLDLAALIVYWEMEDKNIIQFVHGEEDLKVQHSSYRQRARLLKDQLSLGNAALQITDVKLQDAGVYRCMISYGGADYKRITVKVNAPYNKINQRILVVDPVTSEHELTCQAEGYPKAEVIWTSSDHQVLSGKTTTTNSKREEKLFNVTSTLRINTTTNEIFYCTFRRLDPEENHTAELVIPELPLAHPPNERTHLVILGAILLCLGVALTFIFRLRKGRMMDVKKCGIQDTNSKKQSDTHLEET

Sequence of PD-L1 His protein / PD-1 Fc protein (Q9NZQ7 19-238): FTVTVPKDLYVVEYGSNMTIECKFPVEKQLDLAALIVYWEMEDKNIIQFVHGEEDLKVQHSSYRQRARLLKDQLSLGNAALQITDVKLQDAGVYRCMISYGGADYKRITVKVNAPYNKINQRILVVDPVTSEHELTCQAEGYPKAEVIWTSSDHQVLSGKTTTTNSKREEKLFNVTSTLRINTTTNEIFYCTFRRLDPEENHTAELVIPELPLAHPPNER

Compound	IC50 [1] [nM]	EC50 (human PD-L1) [nM]
COc1cc(-c2nccc(-c3nccc(-c4ccc(CN5CC6(CNC(=O)C6)C5)c(OC)n4)c3Cl)c2Cl)ccc1CN1CC2(CNC(=O)C2)C1 [Example 669, 2-(4-(3′,3″-Dichloro-6-methoxy-5-((7-oxo-2,6-diazaspiro[3.4]octan-2-yl)methyl)-[2,4′:2′,4″-terpyridin]-2″-yl)-2-methoxybenzyl)-2,6-diazaspiro[3.4]octan-7-one]	0.34	296
CNCc1ccc(-c2cccc(-c3ccnc(-c4cc(CN5CC6(CC(C(=O)O)C6)C5)cc(OC)c4)c3Cl)c2Cl)nc1OC [Compound 173, 2-(3-(3-chloro-4-(2-chloro-3-(6-methoxy-5-((methylamino)methyl)pyridine-2-yl)phenyl)pyridine-2-yl)-5-methoxybenzyl)-2-azaspiro[3.3]heptane-6-carboxylic acid]	32.1	≥ 10000
COc1nc(-c2cccc(-c3ccnc(-c4ccc5c(CNC[C@@H]6CCCO6)cn(C)c5c4)c3Cl)c2Cl)ccc1CNC[C@@H]1CCC(=O)N1 [Compound 41, (S)-5-((((6-(2-chloro-3-(3-chloro-2-(1-methyl-3-(((((S)-tetrahydrofuran-2-yl)methyl)amino)methyl)-1H-indol-6-yl)pyridin-4-yl)phenyl)-2-methoxypyridin-3-yl)methyl)amino)methyl)pyrrolidin-2-one]	33.9	164
Cn1cc(CNC[C@@H]2CCC(=O)N2)c2ccc(-c3nccc(-c4ccnc(-c5ccc6c(CNC[C@@H]7CCC(=O)N7)cn(C)c6c5)c4Cl)c3Cl)cc21 [Compound 15, (5S,5′S)-5,5′-(((((3,3′-dichloro-[4,4′-bipyridine]-2,2′-diyl)bis(1-methyl-1H-indole-6,3-diyl))bis(methylene))bis(azanediyl))bis(methylene))bis(pyrrolidin-2-one)]	108	10000
COc1nc(-c2ccnc(-c3cccc4c3CC[C@@H]4Oc3nc(OC)c(CNC4CCN(C(C)=O)CC4)cc3C(F)(F)F)c2Cl)ccc1CN1CC2(CNC(=O)C2)C1 [Example 551, (S)-2-((2′-(1-((5-(((1-Acetylpiperidin-4-yl)amino)methyl)-6-methoxy-3-(trifluoromethyl)pyridin-2-yl)oxy)-2,3-dihydro-1H-inden-4-yl)-3′-chloro-6-methoxy-[2,4′-bipyridin]-5-yl)methyl)-2,6-diazaspiro[3.4]octan-7-one]	0.32	182
COc1nc(-c2cccc(-c3ccnc(-c4ccc5c(CNCC(C)C)cn(C)c5c4)c3Cl)c2Cl)ccc1CNC[C@@H]1CCC(=O)N1 [Compound 38, (S)-5-((((6-(2-chloro-3-(3-chloro-2-(3-((isobutylamino)methyl)-1-methyl-1H-indol-6-yl)pyridin-4-yl)phenyl)-2-methoxypyridin-3-yl)methyl)amino)methyl)pyrrolidin-2-one]	116	369
COc1cc(-c2nccc(-c3cccc(-c4ccc([C@H](C)NC5CCN(C(C)=O)CC5)c(OC)n4)c3Cl)c2Cl)ccc1[C@H](C)NC1CCN(C(C)=O)CC1 [Example 599, 1-(4-(((S)-1-(6-(3-(2-(4-((S)-1-((1-Acetylpiperidin-4-yl)amino)ethyl)-3-methoxyphenyl)-3-chloropyridin-4-yl)-2-chlorophenyl)-2-methoxypyridin-3-yl)ethyl)amino)piperidin-1-yl)ethan-1-one]	1.01	≥ 10000
COCCC(=O)N1CCC(NCc2ccc(-c3nccc(-c4cccc(-c5ccc(CNC6CCN(C(=O)CCOC)CC6)c(OC)n5)c4Cl)c3Cl)cc2OC)CC1 [Example 546, 1-(4-(((6-(2-Chloro-3-(3-chloro-2-(3-methoxy-4-(((1-(3-methoxypropanoyl)piperidin-4-yl)amino)methyl)phenyl)pyridin-4-yl)phenyl)-2-methoxypyridin-3-yl)methyl)amino)piperidin-1-yl)-3-methoxypropan-1-one]	1.25	19.5
COc1nc(-c2ccnc(-c3cccc4c3CC[C@@H]4Oc3nc(OC)c(CNC[C@@H]4CCC(=O)N4)cc3C(F)(F)F)c2Cl)ccc1CNC1CCOCC1 [Example 686, (S)-5-((((6-(((S)-4-(3′-chloro-6-methoxy-5-(((tetrahydro-2H-pyran-4-yl)amino)methyl)-[2,4′-bipyridin]-2′-yl)-2,3-dihydro-1H-inden-1-yl)oxy)-2-methoxy-5-(trifluoromethyl)pyridin-3-yl)methyl)amino)methyl)pyrrolidin-2-one]	14.8	11.1
COc1nc(-c2cccc(-c3ccnc(-c4cnc5cc(CNC[C@@H]6CCC(=O)N6)ccc5c4)c3Cl)c2Cl)ccc1CNC[C@@H]1CCC(=O)N1 [Compound 52, (S)-5-((((6-(2-chloro-3-(3-chloro-2-(7-(((((S)-5-oxopyrrolidin-2-yl)methyl)amino)methyl)quinolin-3-yl)pyridin-4-yl)phenyl)-2-methoxypyridin-3-yl)methyl)amino)methyl)pyrrolidin-2-one]	0.2	127
CNCc1ccc(-c2cccc(-c3ccnc(-c4cc(F)c(CNC)c(OC)c4)c3Cl)c2Cl)nc1OC [Example 286, 1-(6-(2-Chloro-3-(3-chloro-2-(3-fluoro-5-methoxy-4-((methylamino)methyl)phenyl)pyridin-4-yl)phenyl)-2-methoxypyridin-3-yl)-N-methylmethanamine]	5.16	15.4
COc1cc(-c2nccc(-c3cccc(-c4ccc(CN[C@H]5CCC(=O)NC5)c(OC)n4)c3Cl)c2Cl)ccc1CNC1CCN(C(C)=O)CC1 [Example 542, (S)-5-(((6-(3-(2-(4-(((1-Acetylpiperidin-4-yl)amino)methyl)-3-methoxyphenyl)-3-chloropyridin-4-yl)-2-chlorophenyl)-2-methoxypyridin-3-yl)methyl)amino)piperidin-2-one]	0.53	79.2
COc1cc(-c2nccc(-c3cccc(-c4ccc5c(OC)c(CNC[C@@H]6CCC(=O)N6)cc(Cl)c5n4)c3Cl)c2Cl)ccc1CNC[C@@H]1CCC(=O)N1 [Compound 207, (S)-5-((((8-chloro-2-(2-chloro-3-(3-chloro-2-(3-methoxy-4-(((((S)-5-oxopyrrolidin-2-yl)methyl)amino)methyl)phenyl)pyridin-4-yl)phenyl)-5-methoxyquinolin-6-yl)methyl)amino)methyl)pyrrolidin-2-one]	7.66	118
COCCNCc1cn(C)c2cc(-c3nccc(-c4cccc(-c5ccc(CNC[C@@H]6CCC(=O)N6)c(OC)n5)c4Cl)c3Cl)ccc12 [Compound 30, (S)-5-((((6-(2-chloro-3-(3-chloro-2-(3-(((2-methoxyethyl)amino)methyl)-1-methyl-1H-indol-6-yl)pyridin-4-yl)phenyl)-2-methoxypyridin-3-yl)methyl)amino)methyl)pyrrolidin-2-one]	15.4	100
COc1nc(-c2cccc(-c3ccnc(-c4ccc5c(c4)OCCN(C[C@H](C)O)C5)c3Cl)c2Cl)ccc1CNC[C@@H]1CCC(=O)N1 [Compound 25, (S)-5-((((6-(2-chloro-3-(3-chloro-2-(4-((S)-2-hydroxypropyl)-2,3,4,5-tetrahydrobenzo[f][1,4]oxazepin-8-yl)pyridin-4-yl)phenyl)-2-methoxypyridin-3-yl)methyl)amino)methyl)pyrrolidin-2-one]	0.5	334
CCNCc1cn(C)c2cc(-c3nccc(-c4cccc(-c5ccc(CNC[C@@H]6CCC(=O)N6)c(OC)n5)c4Cl)c3Cl)ccc12 [Compound 32, (S)-5-((((6-(2-chloro-3-(3-chloro-2-(3-((ethylamino)methyl)-1-methyl-1H-indol-6-yl)pyridin-4-yl)phenyl)-2-methoxypyridin-3-yl)methyl)amino)methyl)pyrrolidin-2-one]	0.7	261
COc1cc(-c2cccc(-c3ccnc(-c4cnc(CN5CC6(CNC(=O)C6)C5)c(OC)c4)c3Cl)c2Cl)cnc1CN1CC2(CNC(=O)C2)C1 [Compound 569, 2-((3-Chloro-4-(2-chloro-3-(5-methoxy-6-((7-oxo-2,6-diazaspiro[3.4]octan-2-yl)methyl)pyridin-3-yl)phenyl)-5′-methoxy-[2,3′-bipyridin]-6′-yl)methyl)-2,6-diazaspiro[3.4]octan-7-one]	0.62	580
COc1cc(-c2nccc(-c3cccc(-c4ccc(CN5CCC(NC(C)=O)CC5)c(OC)n4)c3Cl)c2Cl)ccc1CNC1CCN(C(C)=O)CC1 [Example 341, N-(1-((6-(3-(2-(4-(((1-acetylpiperidin-4-yl)amino)methyl)-3-methoxyphenyl)-3-chloropyridin-4-yl)-2-chlorophenyl)-2-methoxypyridin-3-yl)methyl)piperidin-4-yl)acetamide]	1.14	22.6
COc1cc(-c2nccc(-c3cccc(-c4ccc(CNC5CCOCC5)c(OC)n4)c3F)c2F)ccc1CNC1CCOCC1 [Example 452, N-((6-(2-Fluoro-3-(3-fluoro-2-(3-methoxy-4-(((tetrahydro-2H-pyran-4-yl)amino)methyl)phenyl)pyridin-4-yl)phenyl)-2-methoxypyridin-3-yl)methyl)tetrahydro-2H-pyran-4-amine]	22.6	≥ 10000
COc1nc(-c2cccc(-c3ccnc(-c4cc5c(=O)n(C)c(CN[C@H]6C[C@](C)(O)C6)nn5c4)c3Cl)c2Cl)cc(Cl)c1CNC[C@@H]1CCC(=O)N1 [Compound 87, 6-(3-chloro-4-(2-chloro-3-(4-chloro-6-methoxy-5-(((((S)-5-oxopyrrolidin-2-yl)methyl)amino)methyl)pyridin-2-yl)phenyl)pyridin-2-yl)-2-((((1r,3r)-3-hydroxy-3-methylcyclobutyl)amino)methyl)-3-methylpyrrolo[2,1-f][1,2,4]triazin-4(3H)-one]	3	312
COc1nc(-c2cccc(-c3ccnc(-c4cc(Cl)c5c(c4)CCN(CCC(C)(C)O)C5)c3Cl)c2Cl)ccc1CNC[C@@H]1CCC(=O)N1 [Compound 208, (S)-5-((((6-(2-chloro-3-(3-chloro-2-(8-chloro-2-(3-hydroxy-3-methylbutyl)-1,2,3,4-tetrahydroisoquinolin-6-yl)pyridin-4-yl)phenyl)-2-methoxypyridin-3-yl)methyl)amino)methyl)pyrrolidin-2-one]	8.04	82
